{"source": "paper PMC4057605", "about": "(Journal of immunology (Baltimore, Md. : 1950), 2013)", "key": {"[1]": {"system": "HLA-B*44:02 monochain", "design": "species or system mouse (HLA-B*44:02 monochain transgenic, H-2 class I null)", "conditions": "mouse, in vivo, sc"}, "[2]": {"system": "HLA-B*44:02 monochain", "design": "species or system mouse (HLA-B*44:02 monochain transgenic, H-2 class I null)", "conditions": "mouse, in vivo"}, "[3]": {"system": "HLA-A*01:03 monochain", "conditions": "mouse, in vivo"}, "[4]": {"system": "HLA-A*01:03 monochain", "conditions": "mouse, in vivo, sc"}, "[5]": {"system": "HLA-B*27:05 monochain", "design": "species or system mouse (HLA-B*27:05 monochain transgenic, H-2 class I null)", "conditions": "mouse, in vivo"}, "[6]": {"system": "HLA-B*27:05 monochain", "design": "species or system mouse (HLA-B*27:05 monochain transgenic, H-2 class I null)", "conditions": "mouse, in vivo, sc"}, "[7]": {"system": "HLA-B*08:01 monochain", "design": "species or system mouse (HLA-B*08:01 monochain transgenic, H-2 class I null)", "conditions": "mouse, in vivo, sc"}, "[8]": {"system": "HLA-B*08:01 monochain", "design": "species or system mouse (HLA-B*08:01 monochain transgenic, H-2 class I null)", "conditions": "mouse, in vivo"}}}
{"sequence": "AENGWGFYF", "values": [{"measurement": "CD8+ T cell IFN-γ responses after peptide immunization", "setting": "[1]", "result": "60/41/29/12/9 Spots/10^6 Cells"}, {"measurement": "CD8+ T cell IFN-γ responses after DNA immunization", "setting": "[2]", "result": "91/63/46/0 Spots/10^6 Cells"}]}
{"sequence": "EADPTGHSY", "values": [{"measurement": "CD8+ T cell IFN-γ responses after DNA immunization", "setting": "[3]", "result": "118/91/86/38 Spots/10^6 Cells"}, {"measurement": "CD8+ T cell IFN-γ responses after peptide immunization", "setting": "[4]", "result": "287/212/123/27 Spots/10^6 Cells"}]}
{"sequence": "EENLLDFVRF", "values": [{"measurement": "CD8+ T cell IFN-γ responses after peptide immunization", "setting": "[1]", "result": "54/28/27/20/0 Spots/10^6 Cells"}, {"measurement": "CD8+ T cell IFN-γ responses after DNA immunization", "setting": "[2]", "result": "134/87/0/0 Spots/10^6 Cells"}]}
{"sequence": "FEDLRVLSF", "values": [{"measurement": "CD8+ T cell IFN-γ responses after peptide immunization", "setting": "[1]", "result": "167/61/30/17/8 Spots/10^6 Cells"}, {"measurement": "CD8+ T cell IFN-γ responses after DNA immunization", "setting": "[2]", "result": "66/44/0/0 Spots/10^6 Cells"}]}
{"sequence": "LRGKWQRRYR", "values": [{"measurement": "CD8+ T cell IFN-γ responses after DNA immunization", "setting": "[5]", "result": "221/213/189/13 Spots/10^6 Cells"}, {"measurement": "CD8+ T cell IFN-γ responses after peptide immunization", "setting": "[6]", "result": "113/61/54/23 Spots/10^6 Cells"}]}
{"sequence": "SRYWAIRTR", "values": [{"measurement": "CD8+ T cell IFN-γ responses after DNA immunization", "setting": "[5]", "result": "917/890/411/241 Spots/10^6 Cells"}, {"measurement": "CD8+ T cell IFN-γ responses after peptide immunization", "setting": "[6]", "result": "567/459/110/0 Spots/10^6 Cells"}]}
{"sequence": "VSDGGPNLY", "values": [{"measurement": "CD8+ T cell IFN-γ responses after DNA immunization", "setting": "[3]", "result": "265/169/105 Spots/10^6 Cells"}, {"measurement": "CD8+ T cell IFN-γ responses after peptide immunization", "setting": "[4]", "result": "201/134/71/59 Spots/10^6 Cells"}]}
{"sequence": "WLKIKRDYL", "values": [{"measurement": "CD8+ T cell IFN-γ responses after peptide immunization", "setting": "[7]", "result": "524/103/97/74/64/0 Spots/10^6 Cells"}, {"measurement": "CD8+ T cell IFN-γ responses after DNA immunization", "setting": "[8]", "result": "327/46/39/21/21/11 Spots/10^6 Cells"}]}
